Test results: patent publication US12551527B2, “Drug delivery systems for treatment of infections” (Wayne State University, priority 2017, dated 2026)
Like-named read-outs stand apart in the source and are kept apart here.

Tests used:
[1] = test system: SA 494 (MRSA strain); assay: MIC by broth microdilution susceptibility testing; type: cell-based; conditions: Staphylococcus aureus
Method: (§1) Susceptibility Testing. […] The strains tested were SA 494 and ATCC 29213.
(§2) Susceptibility testing. […] The treatment groups were compared to their commercial drug counterparts, both individually and in combination. […] SA 494 is the MRSA strain, and ATCC 29213 is the MSSA strain. The results were obtained as follows:
(§3) To test the effect of the presence of one drug that may enhance the MIC of the other in combination, combination MIC studies were performed. […] The results for MIC of liposomal CFZ in 0.5×the MIC of liposomal VAN were as follows:
(§4) However, liposomal VAN+CFZ [L (VAN+CFZ)] performed much better as compared to commercial VAN+CFZ (a mixture of non-liposomal antibiotics) in MRSA 494/MSSA 29213. The L(VAN+CFZ) has more than >2-4 fold improvement of MIC as compared to VAN+CFZ. Lower the MIC, the better is the MRSA killing.

[2] = test system: ATCC 29213 (MSSA strain); assay: MIC by broth microdilution susceptibility testing; type: cell-based; conditions: Staphylococcus aureus
Method: as §1, §2, §3, §4

[3] = cited from earlier work
[4] = test system: ATCC 29213; assay: Time-kill analysis in 24 well plates (CLSI); type: cell-based, Staphylococcus aureus; conditions: tested at 1/2×MIC, 1×MIC, 24 h, FIG. 13B
Method: Time kill analysis was performed in 24 well plates according to CLSI guidelines (Patel 2017. M100: Performance Standards for Antimicrobial Susceptibility Testing, 27th Edition .224). Bactericidal activity was defined as >3 log CFU/ml reduction from baseline (initial inoculum). […] Lower the MIC, the better is the MRSA killing.

[5] = test system: MRSA 494 biofilm; assay: Biofilm disruption, pin lid method (Calgary biofilm device); type: cell-based, Staphylococcus aureus; conditions: FIG. 14, FIG. 15
Method: The Minimum Inhibitory […] (MIC) in presence of biofilm was determined using the pin lid method or Calgary biofilm device (Barber et al., Antimicrob Agents Chemother. 58(5):2989-92, 2014; De Oliveira et al., Int J Mol Sci. 17(9), 2016). This method is used for defining the biofilm MIC vs. antibiotic or combination of antibiotics.

| Structure (SMILES) | MIC ([1]; MRSA 494, Example 4 table, read-out: MIC values) [µg/mL] | MIC ([1]; strain 494 (MRSA), broth microdilution, 24 h at 35° C., Example 1, read-out: MC Values (MIC)) [µg/mL] | MIC ([2]; MSSA 29213, Example 4 table, read-out: MIC values) [µg/mL] | MIC ([2]; strain 29213 (MSSA), broth microdilution, 24 h at 35° C., Example 1, read-out: MC Values (MIC)) [µg/mL] | log P [3] | time-kill result [4] | MIC ([1]; MRSA, 24 h, read-out: MC Values (MIC)) [µg/mL] | MIC ([1]; MRSA, read-out: MIC values) [µg/mL] | MIC ([2]; 24 h, read-out: MC Values (MIC)) [µg/mL] | MIC ([2]; read-out: MIC values) [µg/mL] | biofilm disruption (in words) [5] |
| --- | --- | --- | --- | --- | --- | --- | --- | --- | --- | --- | --- |
| Cc1nnc(SCC2=C(C(=O)O)N3C(=O)[C@@H](NC(=O)Cn4cnnn4)[C@H]3SC2)s1 [CCFZ, cefazolin] | > 64 | > 16 | 0.5 | 0.5 | −0.58 |  |  |  |  |  |  |
| CN[C@H](CC(C)C)C(=O)N[C@H]1C(=O)N[C@@H](CC(N)=O)C(=O)N[C@H]2C(=O)N[C@H]3C(=O)N[C@H](C(=O)N[C@H](C(=O)O)c4cc(O)cc(O)c4-c4cc3ccc4O)[C@H](O)c3ccc(c(Cl)c3)Oc3cc2cc(c3O[C@@H]2O[C@H](CO)[C@@H](O)[C@H](O)[C@H]2O[C@H]2C[C@](C)(N)[C@H](O)[C@H](C)O2)Oc2ccc(cc2Cl)[C@H]1O [CVAN, vancomycin] |  |  |  |  |  | grow above the initial inoculum at 24 h | 1 | 1 | 0.5 | 0.5 | barely showed any anti-biofilm effect |
